Test results as given in patent EP0006061A1, “Medicinal compound consisting of a derivative of cyclopentyl aldehyde” (INSTITUT DE RECHERCHES CHIMIQUES ET BIOLOGIQUES APPLIQUEES …, priority 1978, dated 1979).
≈ marks a conversion by molar mass, not a printed value. Like-named read-outs stand apart in the source and are kept apart here.

Assays:
rat femelle = experiment: anti-inflammatory activity, carrageenin oedema test; assay type: in vivo
From the text: L'activité anti-inflammatoire de l'exemple 4 a été étudiée chez le rat femelle (de poids 100 g) selon le test de l'oedème à la carragéenine.Les résultats sont donnés dans le tableau IV où l'Indométacine est utilisée comme produit de référence : […]

duodénum isolé de rat [1] = experiment: antispasmodic activity on isolated duodenum against acetylcholine; assay type: cell-based; conditions: against acetylcholine (0,2 µg/ml), read-out: DE-50 (the source's name)
Method: (§1) L'activité antispasmodique du produit de l'exemple 4 a été étudiée sur le duodénum isolé de rat vis à vis de l'acétvlcholine et du chlorure de baryum. Les DE-50 du produit de l'exemple 4 sont : • (i) 13 µg/ml vis à vis de l'acétycholine (0,2 µg/ml), et • (ii) 10 µg/ml vis à vis de BaCl2 (0,3 µg/ml). g/ toxicité

Bacillus substilis [2] = experiment: bacteriostatic activity (MIC); assay type: cell-based; conditions: read-out: CMI
Method: (§2) Les essais pharmaceutiques qui ont été mis en oeuvre avec les produits des exemples 1 et 4, ont été résumés ci-après : • 1°/ essais avec l'exemple 1 • a/ activité bactériostatique L' α-(2-formyl-3-méthyl-cyclopentyl)-acétal- déhyde inhibe les bactéries Gram (+) et Gram (-). Les CMI (concentration minimale inhibitrice) sont les suivantes : 0,75 mg/ml sur Staphylococcus aureus Londres, 1,2 mg/ml sur Escherichia coli, et 1,5 mg/ml sur Proteus • b/ activité antispasmodique : Les DE-50 du produit de l'exemple 1 ont été déterminés • (i) in vitro sur iléon isolé de cobaye vis à vis de l'histamine : DE - 50 = 50 γ/ml; • (ii) in vivo sur l'animal vivant selon la méthode de KONZETT & ROESLLER : DE - 50 = 2,6 mg/kg par administration i.v. • c/ activité antianaphylactique : Des cobayes mâles sont sensibilisés par deux injections de 0,5 ml d'une solution d'albumine à 2 g/1, à deux jours d'intervalle. Quatre semaines aprës,le choc anaphylactique mortel est provoqué par injection i.v. de 0,2 ml d'une solution aqueuse d'ovalbumine à 2 g/1. Les produits à tester sont administrés 30 mn avant (administration i.p.) ou en même temps (administration i.v.) que l'injection provoquant ledit choc anaphylactique. Les résultats sont donnés dans le tableau I pour le produit de l'exemple 1 et la Prométhazine en tant que produit de référence : [formula] • 2°/ essais avec le produit de l'exemple 4 (constitué par un mélange de 87 % en poids d'isomère "cis-trans" et 13 % en poids d'isomère "trans-cis). • a/ activité bactériostatigue : Le produit de l'exemple 4 inhibe les bactéries Gram (+) et Gram (-). Ses CMI sont les suivantes : • 1,5 mg/m sur Staphylococcus aureus, Londres • 1 mg/ml sur Escherichia coli (souche 548) • 1,75 mg/ml sur Proteus vulgaris (souche 1557) • 2,5 mg/ml sur Klebsiella pneumoniae (souche 433), • 1 mg/ml sur Salmonella typhi murium (souche IP), • 1,5 mg/ml sur Staphylococcus aureus (souche 634), • 1,25 mg/ml sur Streptococcus (souche 1178) • 1,25 mg/ml sur Bacillus substilis, (les souches 548, 1557, 433, 634, et 1178 étant celles du catalogue de la collection du "Centre International de Distribution de Souches et d'Information sur les Types Microbiens" de . Lausanne, et la souche "IP" provenant de l'Institut Pasteur de Paris. • b/ activité bactéricide Le produit de l'exemple 4 détruit les bactéries Gram (+) et Gram (-). Ses CMB (concentration minimalebactéricide) déterminées sur milieu solide (quand moins de 0,01% de germes survivent) sont : • 1,75 mg/ml sur Staphylococcus aureus Londres • 1,5 mg/ml sur Escherichia coli (souche 548) • 2 mg/ml sur Proteus vulgaris (souche 1557) • 3 mg/ml sur Klebsiella pneumoniae (souche 433), • 1,25 mg/ml sur Salmonella typhi murium (souche I.P.) • 1,75 mg/ml sur Staphylococcus aureus (souche 634) • 2 mg/ml sur Streptococcus (souche 1178) • 2,5 mg/ml sur Bacillus substilis. • c/ activité bronchospatique Des cobayes mâles ou femelles [20 animaux (pesant 300-500 g) par dose et par produit à tester] sont exposés à un aérosol de l'exemple 4 (50 g/l en solution eau-éthanol) ou de Prométhazine (produit de référence) pendant 10 mn.

[3] = system: Escherichia coli (souche 548); experiment: bacteriostatic activity (MIC); assay type: cell-based; conditions: read-out: CMI
Method: as §2

[4] = system: Proteus vulgaris (souche 1557); experiment: bacteriostatic activity (MIC); assay type: cell-based; conditions: read-out: CMI
Method: as §2

[5] = system: Klebsiella pneumoniae (souche 433); experiment: bacteriostatic activity (MIC); assay type: cell-based; conditions: read-out: CMI
Method: as §2

[6] = system: Salmonella typhi murium (souche IP); experiment: bacteriostatic activity (MIC); assay type: cell-based; conditions: Salmonella enterica, read-out: CMI
Method: as §2

[7] = system: Streptococcus (souche 1178); experiment: bacteriostatic activity (MIC); assay type: cell-based; conditions: read-out: CMI
Method: as §2

[8] = system: Staphylococcus aureus (souche 634); experiment: bacteriostatic activity (MIC); assay type: cell-based; conditions: read-out: CMI
Method: as §2

cobayes [9] = experiment: antianaphylactic activity: ovalbumin aerosol in sensitised animals (time to dyspnoea); assay type: in vivo; conditions: aerosol pretreatment, controls 94 ± 39
From the text: Des cobayes (mâles ou femelles) sont sensibilisés à l'ovalbumine quatre semaines avant le début de l'expérience. Chaque animal est exposé à un aérosol d'ovalbumine (obtenu à partir d'un milieu aqueux contenant 50 g/1 d'ovalbumine). Le choc anaphylactique se manifeste par l'apparition d'une dyspnée intense. Les temps d'apparition de la dyspnée sont comparés entre lot témoin et lots préalablement traités avec un aérosol du produit de l'exemple 4 (50 g/1 dans une solution eau-éthanol). Les résultats donnés dans le tableau IV, montrent que le produit de l'exemple 4 […] le temps d'apparition des troubles respiratoires provoqués par l'aérosol d'ovalbumine .

iléon isolé de cobaye = experiment: antianaphylactic activity in vitro: albumin-induced contraction of ileum from sensitised animals; assay type: cell-based; conditions: for amplitude des contractions: 2 min contact, 200 µg albumin, controls 147 ± 32
Method: Des cobayes mâles sont sensibilises par une injection i.p. de 100 mg/kg d'ovalbumine dans un volume égal d'adjuvant de Freund. Quatre semaines après, les animaux sont sacrifiés, on recueille chaque iléon qui est placé à 33°C dans un bain de Thyrode. Une contraction est provoquée par addition d'une dose de 200 µg d'albumine au liquide de survie. L'amplitude des contractions des témoins est comparée à l'amplitude des contractions après mise en contact du produit de l'exemple 4 pendant 2 mn. Les résultats donnés dans le tableau III montrent que le produit de l'exemple 4 réduit l'amplitude des contractions de l'iléon isolé de cobaye , cette réduction étant statistiquement significative.

duodénum isolé de rat [10] = experiment: antispasmodic activity on isolated duodenum against barium chloride; assay type: cell-based; conditions: against BaCl2 (0,3 µg/ml), read-out: DE-50 (the source's name)
Method: as §1

Bacillus substilis [11] = experiment: bactericidal activity (MBC) on solid medium; assay type: cell-based; conditions: less than 0,01% of germs survive, read-out: CMB (concentration minimalebactéricide)
Method: as §2

[12] = system: Escherichia coli (souche 548); experiment: bactericidal activity (MBC) on solid medium; assay type: cell-based; conditions: less than 0,01% of germs survive, read-out: CMB (concentration minimalebactéricide)
Method: as §2

[13] = system: Salmonella typhi murium (souche I.P.); experiment: bactericidal activity (MBC) on solid medium; assay type: cell-based; conditions: Salmonella enterica, less than 0,01% of germs survive, read-out: CMB (concentration minimalebactéricide)
Method: as §2

[14] = system: Staphylococcus aureus Londres; experiment: bactericidal activity (MBC) on solid medium; assay type: cell-based; conditions: less than 0,01% of germs survive, read-out: CMB (concentration minimalebactéricide)
Method: as §2

[15] = system: Proteus vulgaris (souche 1557); experiment: bactericidal activity (MBC) on solid medium; assay type: cell-based; conditions: less than 0,01% of germs survive, read-out: CMB (concentration minimalebactéricide)
Method: as §2

[16] = system: Klebsiella pneumoniae (souche 433); experiment: bactericidal activity (MBC) on solid medium; assay type: cell-based; conditions: less than 0,01% of germs survive, read-out: CMB (concentration minimalebactéricide)
Method: as §2

[17] = system: Streptococcus (souche 1178); experiment: bactericidal activity (MBC) on solid medium; assay type: cell-based; conditions: less than 0,01% of germs survive, read-out: CMB (concentration minimalebactéricide)
Method: as §2

[18] = system: Staphylococcus aureus (souche 634); experiment: bactericidal activity (MBC) on solid medium; assay type: cell-based; conditions: less than 0,01% of germs survive, read-out: CMB (concentration minimalebactéricide)
Method: as §2

cobayes [19] = experiment: histamine aerosol bronchospasm (time to apnoea); assay type: in vivo; conditions: aerosol for 10 min before histamine aerosol, controls 108 ± 18
Method: Les essais pharmaceutiques qui ont été mis en oeuvre avec les produits des exemples 1 et 4, ont été résumés ci-après : • 1°/ essais avec l'exemple 1 • a/ activité bactériostatique L' α-(2-formyl-3-méthyl-cyclopentyl)-acétal- déhyde inhibe les bactéries Gram (+) et Gram (-). Les CMI (concentration minimale inhibitrice) sont les suivantes : 0,75 mg/ml sur Staphylococcus aureus Londres, 1,2 mg/ml sur Escherichia coli, et 1,5 mg/ml sur Proteus • b/ activité antispasmodique : Les DE-50 du produit de l'exemple 1 ont été déterminés • (i) in vitro sur iléon isolé de cobaye vis à vis de l'histamine : DE - 50 = 50 γ/ml; • (ii) in vivo sur l'animal vivant selon la méthode de KONZETT & ROESLLER : DE - 50 = 2,6 mg/kg par administration i.v. • c/ activité antianaphylactique : Des cobayes mâles sont sensibilisés par deux injections de 0,5 ml d'une solution d'albumine à 2 g/1, à deux jours d'intervalle. Quatre semaines aprës,le choc anaphylactique mortel est provoqué par injection i.v. de 0,2 ml d'une solution aqueuse d'ovalbumine à 2 g/1. Les produits à tester sont administrés 30 mn avant (administration i.p.) ou en même temps (administration i.v.) que l'injection provoquant ledit choc anaphylactique. Les résultats sont donnés dans le tableau I pour le produit de l'exemple 1 et la Prométhazine en tant que produit de référence : [formula] • 2°/ essais avec le produit de l'exemple 4 (constitué par un mélange de 87 % en poids d'isomère "cis-trans" et 13 % en poids d'isomère "trans-cis). • a/ activité bactériostatigue : Le produit de l'exemple 4 inhibe les bactéries Gram (+) et Gram (-). […]

acute toxicity (LD50) = experiment: acute toxicity (LD50); design: species or system souris; conditions: in vivo, mouse
Method: Les DL-50 du poids de l'exemple 4 chez la souris sont les suivantes : • DL-50 i.p. = 18 ± 3 mg/kg • DL-50 i.v. - 20 ± 3 mg/kg • DL-50 p.o. = 282 ± 3 mg/kg • DL-50 s.c. > 1000 mg/kg • DL-50 aérosol = 22 ± 3 mg/kg

SMILES: COc1ccc2c(c1)c(CC(=O)O)c(C)n2C(=O)c1ccc(Cl)cc1 [Indometacine, reference compound]
- inhibition par rapport aux témoins (rat femelle; dose 200 µg per rat): 57%

SMILES: C=C(C=O)C1CCC(C)C1C=O (stereo not drawn) [Ex. 4, α-(2-formyl-3-méthyl-cyclopentyl)-acrylaldéhyde]
- inhibition par rapport aux témoins (rat femelle; dose 10 µg per rat): 26%
- inhibition par rapport aux témoins (rat femelle; dose 50 µg per rat): 25%
- inhibition par rapport aux témoins (rat femelle; dose 200 µg per rat): 41%
- EC50 (duodénum isolé de rat [1]): 13 µg/mL (≈ 0.0782 mM)
- MIC (Bacillus substilis [2]): 1250 µg/mL (≈ 7.52 mM)
- MIC [3]: 1000 µg/mL (≈ 6.02 mM)
- MIC [4]: 1750 µg/mL (≈ 10.5 mM)
- MIC [5]: 2500 µg/mL (≈ 15 mM)
- MIC [6]: 1000 µg/mL (≈ 6.02 mM)
- MIC [7]: 1250 µg/mL (≈ 7.52 mM)
- MIC [8]: 1500 µg/mL (≈ 9.02 mM)
- Dyspnée temps d'apparition (secondes) (cobayes [9]; 1 mg/kg): 120 ± 52 secondes
- Dyspnée temps d'apparition (secondes) (cobayes [9]; 10 mg/kg): 130 ± 54 secondes
- amplitude des contractions (iléon isolé de cobaye; 5 µg/ml): 91 ± 37
- amplitude des contractions (iléon isolé de cobaye; 10 µg/ml): 52 ± 16
- inhibition at 5 µg/mL (iléon isolé de cobaye; Cavia porcellus, 2 min, 5 µg/ml, read-out: variation de l'amplitude par rapport aux animaux témoins): 38%
- inhibition at 10 µg/mL (iléon isolé de cobaye; Cavia porcellus, 2 min, 10 µg/ml, read-out: variation de l'amplitude par rapport aux animaux témoins): 65%
- EC50 (duodénum isolé de rat [10]): 10 µg/mL (≈ 0.0602 mM)
- MBC (Bacillus substilis [11]): 2500 µg/mL (≈ 15 mM)
- MBC [12]: 1500 µg/mL (≈ 9.02 mM)
- MBC [13]: 1250 µg/mL (≈ 7.52 mM)
- MBC [14]: 1750 µg/mL (≈ 10.5 mM)
- MBC [15]: 2000 µg/mL (≈ 12 mM)
- MBC [16]: 3000 µg/mL (≈ 18 mM)
- MBC [17]: 2000 µg/mL (≈ 12 mM)
- MBC [18]: 1750 µg/mL (≈ 10.5 mM)
- Apparition de l'apnée (en secondes) (cobayes [19]; 1 mg/kg): 130 ± 23 secondes
- Apparition de l'apnée (en secondes) (cobayes [19]; 10 mg/kg): 169 ± 32 secondes
- LD50 (acute toxicity (LD50); inhaled or intranasal, aerosol, read-out: DL-50 aérosol): 22 ± 3 mg/kg
- LD50 (acute toxicity (LD50); ip, i.p., read-out: DL-50 i.p.): 18 ± 3 mg/kg
- LD50 (acute toxicity (LD50); iv, i.v., read-out: DL-50 i.v.): 20 ± 3 mg/kg
- LD50 (acute toxicity (LD50); po, p.o., read-out: DL-50 p.o.): 282 ± 3 mg/kg
- LD50 (acute toxicity (LD50); sc, s.c., read-out: DL-50 s.c.): > 1000 mg/kg
